Some test systems named below: HOP-18; KM-20L2; DMS-114; DMS-273; DLD-1; SNB-78; M19-MEL; XF498; RXF 631.
Common to all, as to test: NCI tumour cell line growth inhibition, 48 h

Structures are written as SMILES.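 Exposure lasted 48 hours, with cells grown in 96-well plates and compounds tested at five concentrations. GI50 marks 50% less growth.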 Activity calls are given as the source filed them. Rule as the data show it: active = GI50 up to about 1.1 µM and inactive = higher. Some results are limits rather than exact numbers.

The values below come from ChEMBL document CHEMBL1201862, “PubChem BioAssay data set” (2004).

Turning to `C=CCn1c(=O)n(CC=C)c(=O)n(CC=C)c1=O`, the GI50 with HOP-18, with KM-20L2, in the assay with DMS-114, with DMS-273, in the assay on DLD-1 and in the assay with SNB-78 was > 100 µM (inactive) throughout. In the assay with M19-MEL, the GI50 was > 100 µM (inactive).
For the molecule `COc1cc2c(cc1OC)C1Cc3ccc(OC)c(OC)c3C[N+]1([O-])CC2` (stereo not given), the GI50 in the assay with KM-20L2, in the assay with XF498, in the assay with DLD-1 and in the assay with SNB-78 was > 100 µM (inactive) throughout.
For `CC1(C2CCC3(C)OC3C2)CO1` (stereo not given), the GI50 in the assay on HOP-18, in the assay with KM-20L2, with RXF 631, in the assay on DMS-114, in the assay on XF498 and in the assay with DMS-273 was > 100 µM (inactive) each time. Also, the GI50 in the assay on DLD-1, in the assay with SNB-78 and in the assay with M19-MEL was > 100 µM (inactive) in each case.
On to `COC(=O)[C@H]1C=C[C@@H](C)n2c(=O)c3cc4ccccc4cc3c(=O)n21`, for which the GI50 in the assay on KM-20L2 was > 100 µM (inactive); in the assay on RXF 631, > 100 µM (inactive); in the assay on DMS-114, > 100 µM (inactive); in the assay on XF498 it was 98.9 µM (inactive); with DMS-273 it was > 100 µM (inactive); with DLD-1 it was > 100 µM (inactive). For the same molecule, the GI50 in the assay with SNB-78 and with M19-MEL was > 100 µM (inactive) each time.
Consider `COc1ccc2ccccc2c1CN1CCOCCOCCN(Cc2c(OC)ccc3ccccc23)CCOCCOCC1`, for which the GI50 in the assay with KM-20L2 is > 23 µM (inactive); with DMS-114, 9.95 µM (inactive); with XF498 it was > 41.5 µM (inactive); in the assay on DMS-273 it was 24.2 µM (inactive); in the assay on DLD-1, > 100 µM (inactive); with SNB-78 it was > 68.4 µM (inactive). For the same molecule, the GI50 in the assay on M19-MEL was > 81.8 µM (inactive).
In the case of `CC(C)N(C(=O)C12C3C4C5(C(=O)O)C(C1C35I)C42C(=O)O)C(C)C` (stereo not given), the GI50 in the assay on KM-20L2, in the assay with RXF 631, in the assay on DMS-114, in the assay on DMS-273, in the assay on DLD-1 and with SNB-78 was > 100 µM (inactive) throughout. Also, the GI50 with M19-MEL is > 100 µM (inactive).
For `Clc1ccc(C(n2cc(Br)cn2)n2cc(Br)cn2)cc1`, the GI50 is 18.1 µM (inactive) in the assay with HOP-18, 18.8 µM (inactive) in the assay on DMS-273, 19.7 µM (inactive) in the assay with SNB-78 and 16.9 µM (inactive) in the assay on M19-MEL.
For `COC(=O)c1nn(C(=N)c2ccc(Cl)cc2)c2c1CCCCC2`, the GI50 in the assay on KM-20L2, in the assay on DMS-114, in the assay on DMS-273, in the assay on DLD-1, in the assay on SNB-78 and with M19-MEL was > 100 µM (inactive) each time.
`O=C(/C=C/c1ccc([N+](=O)[O-])cc1)c1ccc(NCc2nc3ccccc3[nH]2)cc1`: the GI50 is 16.4 µM (inactive) in the assay on HOP-18; 3.98 µM (inactive) with KM-20L2; 3.49 µM (inactive) in the assay with RXF 631; 1.91 µM (inactive) in the assay on DMS-114; 6.17 µM (inactive) with XF498; 3.05 µM (inactive) in the assay with DMS-273. Also, the GI50 in the assay with DLD-1 was 3.97 µM (inactive); with SNB-78, 5.81 µM (inactive); in the assay on M19-MEL it was 3.94 µM (inactive).
As to `CCOP(=S)(OCC)Oc1ccc2c(c1)OC(=O)C1(Cl)C2(C)C2(Cl)C(=O)Oc3cc(OP(=S)(OCC)OCC)ccc3C12C` (stereo not given), the GI50 was 17.1 µM (inactive) in the assay with KM-20L2; 14.6 µM (inactive) in the assay on DMS-114; 19.2 µM (inactive) in the assay with XF498; 20.3 µM (inactive) in the assay with DMS-273; 16.8 µM (inactive) in the assay with DLD-1; 19.4 µM (inactive) with SNB-78. For the same molecule, in the assay with M19-MEL, the GI50 was 18 µM (inactive).
Consider `O=C1/C(=C/c2ccccc2)CN(C(=O)CCN2CCCC2)C/C1=C\c1ccccc1`, for which the GI50 was 3.35 µM (inactive) in the assay with HOP-18; 1.62 µM (inactive) with KM-20L2; 4.08 µM (inactive) in the assay with RXF 631; 2.07 µM (inactive) in the assay on DMS-114; 5.09 µM (inactive) with XF498; 1.75 µM (inactive) with DMS-273. In addition, the results for the GI50 with DLD-1, with SNB-78 and in the assay on M19-MEL were 1.46 µM (inactive), 3.8 µM (inactive) and 1.84 µM (inactive), respectively.
On to `COC1=NCc2ccccc2-c2ccccc21`, for which the GI50 in the assay on HOP-18 was 75.9 µM (inactive); in the assay on DMS-114, > 100 µM (inactive); in the assay with XF498 it was > 100 µM (inactive); in the assay with DMS-273, > 100 µM (inactive); with DLD-1, > 100 µM (inactive); in the assay with SNB-78, > 100 µM (inactive).
`COC(=O)C1=C(c2cc(OC)c(OC)c(OC)c2)OC(c2ccc(OC)c(OC)c2)C1` (stereo not given): the GI50 in the assay with HOP-18 is 92.3 µM (inactive); in the assay on KM-20L2 it was 44.9 µM (inactive); in the assay with DMS-114, 28.4 µM (inactive); in the assay on XF498, 68.4 µM (inactive); with DMS-273 it was 45.4 µM (inactive); in the assay with DLD-1 it was 36.5 µM (inactive). Further, the GI50 with M19-MEL was 43.3 µM (inactive).
Turning to `CCC(=S)N(C)O`, the GI50 with KM-20L2 is 21.7 µM (inactive); with DMS-114, 2.22 µM (inactive); with XF498 it was 1.01 µM (active); with DLD-1 it was 24.6 µM (inactive); with SNB-78 it was 55.6 µM (inactive); with M19-MEL, 9.77 µM (inactive).
For the molecule `CN(C)C(=S)/N=c1\ss/c(=N\S(=O)(=O)c2ccccc2)n1N(C)C`, the GI50 was > 100 µM (inactive) with HOP-18; > 100 µM (inactive) in the assay with KM-20L2; > 100 µM (inactive) in the assay on RXF 631; 12.9 µM (inactive) in the assay on DMS-114; 92 µM (inactive) with DMS-273; > 100 µM (inactive) with DLD-1. Besides, the figures for the GI50 in the assay on SNB-78 and with M19-MEL were > 100 µM (inactive) and 55.5 µM (inactive), respectively.
Turning to `Oc1ccc2ccccc2c1/N=N/c1ccsc1`, the GI50 in the assay with HOP-18 is > 100 µM (inactive); in the assay on KM-20L2 it was > 100 µM (inactive); in the assay with RXF 631, 45.5 µM (inactive); with DMS-114, > 100 µM (inactive); with DMS-273, > 100 µM (inactive); with DLD-1, > 100 µM (inactive). In addition, the GI50 in the assay with SNB-78 and in the assay on M19-MEL was > 100 µM (inactive) throughout.
For the molecule `CN(C)NC(=O)NC12CC3CC(CC(C3)C1)C2`, the GI50 with KM-20L2, with XF498, in the assay on DMS-273, in the assay with SNB-78 and in the assay on M19-MEL was > 100 µM (inactive) each time.
`CC12C(=CC(=O)CC1SCCS(=O)(=O)O)C(C#N)=C(N)N2c1ccc(Cl)c(Cl)c1` (stereo not given): the GI50 in the assay with KM-20L2, with DMS-114, in the assay on DMS-273, in the assay on DLD-1, in the assay with SNB-78 and in the assay on M19-MEL was > 100 µM (inactive) throughout.
As for `COc1cccc2c1C(=O)c1c(O)c3c(c(O)c1C2=O)CC(O)(C(O)CO)CC3OC1CC(N2CCOCC2)C(O)C(C)O1` (stereo not given), the GI50 was < 0.001 µM (active) with HOP-18; 0.0267 µM (active) in the assay with KM-20L2; < 0.001 µM (active) in the assay on RXF 631; 0.018 µM (active) in the assay on DMS-114; 0.0168 µM (active) with XF498; < 0.001 µM (active) with DMS-273. Further, the figures for the GI50 in the assay on DLD-1, with SNB-78 and in the assay with M19-MEL were < 0.001 µM (active), 0.0106 µM (active) and 0.0146 µM (active), respectively.
With `Cc1ccc(-n2c3nc(=O)n(C)c(=O)c-3nc3ccccc32)c(C)c1`, the GI50 in the assay with HOP-18 was 6.62 µM (inactive); in the assay on KM-20L2, 4.92 µM (inactive); in the assay with RXF 631, 7.05 µM (inactive); in the assay on XF498 it was 13.1 µM (inactive); in the assay on DMS-273 it was 4.34 µM (inactive); in the assay on DLD-1, 15 µM (inactive). Also, the GI50 with SNB-78 was 21.5 µM (inactive); with M19-MEL, 1.63 µM (inactive).
